According to US4693992A, “Bacitracin-metal-polyether antibiotic complexes” (International Minerals & Chemical Corp., priority 1985, dated 1987):

Assays:
[1] = system: Eimeria tenella; assay: Anticoccidial activity in chickens inoculated with Eimeria tenella oocysts (Example 11); type: in vivo; settings: for Incidence of Bloody Droppings / Morbidity: 4th-6th day; for Morbidity: birds affected/birds in group; for Mortality: 4th-7th day, birds dead/birds in group; for F/G Day 0-3 / F/G Day 4-10: feed per gain
Description: (§1) This example describes experimental testing of complexes of this invention for anticoccidial activity. Anticoccidial activities of test compounds were determined by administering the compounds (in feed) to chickens inoculated with active oocysts of Eimeria tenella. The test compounds, which are listed in Table 1 below, included four bacitracin-metal-polyether antibiotic complexes prepared according to the procedures described above. In addition, sodium lysocellin, regular bacitracin, sodium monensin, sodium lasolocid, and unmedicated inoculated and noninoculated controls were included for comparative purposes.
(§2) The test animals were Hubbard White Mountain male chicken (broiler strain) that were 5 days old at the beginning of the test. Each experimental compound was administered in a chick starter diet (Table 2) at a level of 80 g/ton and 120 g/ton. At 7 days of age, chicks were individually weighed, banded, and started on their respective treatments. Each treatment was replicated three times with five birds per replicate for a total of 15 birds per group. The test period was 10 days.
Seventy-two hours after the initiation of medication, birds were reweighed and orally inoculated with approximately 100,000 Eimeria tenella oocysts suspended in a 1 cc dose of saline. The following criteria were then evaluated over the next seven days: […]
a. morbidity (4th-6th day) b. mortality (4th-7th day) c. incidence of bloody droppings (4th-6th day)

[2] = system: Eimeria tenella; assay: Anticoccidial activity in chickens inoculated with Eimeria tenella (Example 12); type: in vivo, chicken; settings: for Cecal bleeding associated with E. tenella infections: 80 gram per ton; for weight gains compared with those of test compound 5 and lasalocid: 80 gram per ton (lasalocid 24 gram per ton)
Description: as §1, §2
Seventy-two hours after the initiation of medication, birds were reweighed and orally inoculated with approximately 100,000 Eimeria tenella oocysts suspended in a 1 cc dose of saline. The following criteria were then evaluated over the next seven days:
A satisfactory challenge was obtained with Eimeria tenella.

[3] = system: buffered rumen fluid; assay: Rumen screen, in vitro ruminal volatile fatty acid ratio (Examples 15, 16); type: cell-based, steer; settings: Neg. Control 1.39
Description: Rumen fluid was removed from a fistulated steer and strained through a cheesecloth. An equal amount of pH 7 buffer was added to strained rumen fluid. After layering occurred, the lower layer was saved and again diluted with equal amount of buffer. Ten ml. portions of buffered rumen fluid were added to fermentation vessels containing 500 mg. fresh finely ground cattle ration, 1 mg cellubiose and a test compound listed in Table 1 below at the indicated concentration. The fermentation vesels were outfitted with one-way gas valves, placed in an incubator and shaken for 24 hours at 38° C. Fermentation was stopped by addition of 1 ml mercuric chloride. The liquid was decanted and analyzed for volatile fatty acids by gas chromatography. Test results are summarized in Table 1, wherein Bac=bacitracin.
The procedures of Example 15 were repeated in all essential details with the test compounds and concentrations listed in Table 1 below, as are the results of the test.

[4] = Weight gain and feed utilization efficiency in chicks, 11 days (Example 13); type: in vivo, chicken; design: key to Average Weight: average weight in grams; settings: for Average Gain / Gain/Feed Ratio / Average Weight / Gain/Feed / Average Gain Index / Gain/Feed Ratio Index: .00275% in rye basal diet; for Average Gain / Gain/Feed Ratio: 11 days; for Average Gain Index / Gain/Feed Ratio Index: unmedicated = 100
Description: (§3) This example describes experimetnal testing of complexes of the present invention as feed additives for improving weight gain or feed utilization efficiency in birds. Test animals were male meat-type chickens (Hubbard strain). Fluorescent room lights were on a 16 hours light/8 hours dark schedule. The chicks were allotted to the pens on the basis of weight classes, and chicks in the even numbered pens were wing banded. Group weights were obtained at the start and individual weights at the termination of the experiment. Chicks weighing between 55 and 65 grams were selected for the test. The test compounds were blended with a basal feed ration (shown in Table 2) at the indicated concentration. Birds fed […] and feed supplemented with zinc bacitracin (Baciferm® 50, International Minerals and Chemical Corp.) were used as controls. The test was continued for 11 days, after which individual weights, pen weight and feed consumption were recorded and analyzed.

[5] = Weight gain and feed utilization in chicks, 12 days (Example 14); type: in vivo, chicken; settings: .0066% in feed; for Gain/Feed Data / Gains/gram Data: 12 days; for Gain/Feed Index Relative to #1 / Gains Index Relative to #1: #1 = unmedicated; for Gain/Feed Index Relative to #2 / Gains Index Relative to #2: #2 = zinc bacitracin
Description: as §3
All of the bacitracin-metal-polyether antibiotic complexes tested produced statistically significant increases in gains compared to the unmedicated basal ration.
The test involving test compounds 1 and 3-14 consisted of 5 replicates of 7 chicks and those involving test compound 2 consisted of 6 replicates of 7 chicks. The tests were continued for 12 days, after which individual weight gains and feed conusumption were recorded and analyzed.

[6] = 14 g/ton Lasalocid (Approx.), regrouped part of Table 2
[7] = 36 g/ton Lasalocid (Approx.), regrouped part of Table 2
[8] = Example 15, 10 ppm, 24 hours at 38° C.

Bacitracin-Cobalt-Lysocellin Complex [Example 1]
Incidence of Bloody Droppings ([1]; 80 g/ton in feed): Severe
Morbidity ([1]; 80 g/ton in feed): 10/15
Mortality ([1]; 80 g/ton in feed): 0/15
Gain, Grams Day 0-3 ([1]; 80 g/ton in feed): 58.4 Grams
Gain, Grams Day 4-10 ([1]; 80 g/ton in feed): 196.5 Grams
F/G Day 0-3 ([1]; 80 g/ton in feed): 1.75
F/G Day 4-10 ([1]; 80 g/ton in feed): 1.71
Incidence of Bloody Droppings ([1]; 120 g/ton in feed): Moderate
Morbidity ([1]; 120 g/ton in feed): 4/15
Mortality ([1]; 120 g/ton in feed): 0/15
Gain, Grams Day 0-3 ([1]; 120 g/ton in feed): 54.1 Grams
Gain, Grams Day 4-10 ([1]; 120 g/ton in feed): 209.1 Grams
F/G Day 0-3 ([1]; 120 g/ton in feed): 1.81
F/G Day 4-10 ([1]; 120 g/ton in feed): 1.66
Cecal Bleeding [2, 6]: Severe
Gain/Bird Days 0-3 [2, 6]: 61.6
Gain/Bird Days 4-10 [2, 6]: 180.1
Cecal Bleeding [2, 7]: Slight
Feed/Gain Days 0-3 [2, 7]: 1.65
Gain/Bird Days 0-3 [2, 7]: 59.0
Gain/Bird Days 4-10 [2, 7]: 188.4
Incidence of Bloody Droppings ([2]; 80 g/ton in feed): Severe
Morbidity ([2]; 80 g/ton in feed): 6/15
Mortality ([2]; 80 g/ton in feed): 0/15
F/G Day 0-3 ([2]; 80 g/ton in feed): 1.62
Gain/Bird Grams Day 0-3 ([2]; 80 g/ton in feed): 61.6 Grams
F/G Day 4-10 ([2]; 80 g/ton in feed): 1.86
Gain/Bird Grams Day 4-10 ([2]; 80 g/ton in feed): 180.1 Grams
Cecal bleeding associated with E. tenella infections [2]: severe
weight gains compared with those of test compound 5 and lasalocid [2]: appreciably higher
Incidence of Bloody Droppings ([2]; 120 g/ton in feed): Slight-
Morbidity ([2]; 120 g/ton in feed): 4/15
Mortality ([2]; 120 g/ton in feed): 0/15
F/G Day 0-3 ([2]; 120 g/ton in feed): 1.64
Gain/Bird Grams Day 0-3 ([2]; 120 g/ton in feed): 59.0 Grams
F/G Day 4-10 ([2]; 120 g/ton in feed): 1.78
Gain/Bird Grams Day 4-10 ([2]; 120 g/ton in feed): 188.4 Grams
anticoccidial activity (in words) ([2]; 120 grams per ton): good anticoccidial activity
A/P Ratio [3, 8]: 1.10

Bacitracin-Nickel-Lysocellin Complex [Example 4]
protection against cecal bleeding ([1]; 80 and 120 g/ton): only fair
bleeding ([1]; 80 and 120 g/ton, this test): slight bleeding
anticoccidial activity (in words) ([1]; 80 and 120 g/ton, mild E. tenella challenge): performed well
Incidence of Bloody Droppings ([1]; 80 g/ton in feed): Slight
Morbidity ([1]; 80 g/ton in feed): 2/15
Mortality ([1]; 80 g/ton in feed): 0/15
Gain, Grams Day 0-3 ([1]; 80 g/ton in feed): 60.8 Grams
Gain, Grams Day 4-10 ([1]; 80 g/ton in feed): 229.1 Grams
F/G Day 0-3 ([1]; 80 g/ton in feed): 1.70
F/G Day 4-10 ([1]; 80 g/ton in feed): 1.59
Incidence of Bloody Droppings ([1]; 120 g/ton in feed): Slight
Morbidity ([1]; 120 g/ton in feed): 1/15
Mortality ([1]; 120 g/ton in feed): 1/15
Gain, Grams Day 0-3 ([1]; 120 g/ton in feed): 58.6 Grams
Gain, Grams Day 4-10 ([1]; 120 g/ton in feed): 227.7 Grams
F/G Day 0-3 ([1]; 120 g/ton in feed): 1.70
F/G Day 4-10 ([1]; 120 g/ton in feed): 1.59
bleeding ([1]; 200 g/ton, in C-760 (another test)): no bleeding
Cecal Bleeding [2, 6]: Severe
Gain/Bird Days 0-3 [2, 6]: 63.3
Gain/Bird Days 4-10 [2, 6]: 164.1
Cecal Bleeding [2, 7]: Slight-Moderate
Gain/Bird Days 0-3 [2, 7]: 59.5
Gain/Bird Days 4-10 [2, 7]: 187.4
Incidence of Bloody Droppings ([2]; 80 g/ton in feed): Severe
Morbidity ([2]; 80 g/ton in feed): 9/15
Mortality ([2]; 80 g/ton in feed): 0/15
F/G Day 0-3 ([2]; 80 g/ton in feed): 1.61
Gain/Bird Grams Day 0-3 ([2]; 80 g/ton in feed): 63.3 Grams
F/G Day 4-10 ([2]; 80 g/ton in feed): 1.91
Gain/Bird Grams Day 4-10 ([2]; 80 g/ton in feed): 164.1 Grams
Cecal bleeding associated with E. tenella infections [2]: severe
weight gains compared with those of test compound 5 and lasalocid [2]: appreciably higher
Morbidity ([2]; 120 g/ton in feed): 5/15
Mortality ([2]; 120 g/ton in feed): 0/15
F/G Day 0-3 ([2]; 120 g/ton in feed): 1.69
Gain/Bird Grams Day 0-3 ([2]; 120 g/ton in feed): 59.5 Grams
F/G Day 4-10 ([2]; 120 g/ton in feed): 1.72
Gain/Bird Grams Day 4-10 ([2]; 120 g/ton in feed): 187.4 Grams
Average Gain [4]: 217 g
Gain/Feed Ratio [4]: 62.8
Average Weight ([4]; Table 4): 277.0
Gain/Feed ([4]; Table 4): 62.8
Average Gain Index [4]: 105.4
Gain/Feed Ratio Index [4]: 98.5
Gain/Feed Data [5]: .585
Gains/gram Data [5]: 197.2 gram
Gain/Feed Index Relative to #1 [5]: 103.9
Gains Index Relative to #1 [5]: 106.5
Gain/Feed Index Relative to #2 [5]: 98.2
Gains Index Relative to #2 [5]: 94.1
A/P Ratio [3, 8]: 1.10
A/P Ratio ([3]; Example 16, 10 ppm): .88

Bacitracin-Sodium-Lysocellin Complex [Example 5]
Morbidity ([1]; 80 g/ton in feed): 4/15
Mortality ([1]; 80 g/ton in feed): 0/15
Gain, Grams Day 0-3 ([1]; 80 g/ton in feed): 56.1 Grams
Gain, Grams Day 4-10 ([1]; 80 g/ton in feed): 219.9 Grams
F/G Day 0-3 ([1]; 80 g/ton in feed): 1.70
F/G Day 4-10 ([1]; 80 g/ton in feed): 1.62
Incidence of Bloody Droppings ([1]; 120 g/ton in feed): Moderate
Morbidity ([1]; 120 g/ton in feed): 1/15
Mortality ([1]; 120 g/ton in feed): 1/15
Gain, Grams Day 0-3 ([1]; 120 g/ton in feed): 58.8 Grams
Gain, Grams Day 4-10 ([1]; 120 g/ton in feed): 228.3 Grams
F/G Day 0-3 ([1]; 120 g/ton in feed): 1.72
F/G Day 4-10 ([1]; 120 g/ton in feed): 1.62
Cecal Bleeding [2, 6]: Severe
Gain/Bird Days 0-3 [2, 6]: 59.9
Gain/Bird Days 4-10 [2, 6]: 147.7
anticoccidial activity (in words) ([2]; 36 (0.30 of 120) grams per ton): fair anticoccidial activity
Cecal Bleeding [2, 7]: Moderate
Gain/Bird Days 0-3 [2, 7]: 58.6
Gain/Bird Days 4-10 [2, 7]: 169.4
Incidence of Bloody Droppings ([2]; 80 g/ton in feed): Severe
Morbidity ([2]; 80 g/ton in feed): 11/15
Mortality ([2]; 80 g/ton in feed): 0/15
F/G Day 0-3 ([2]; 80 g/ton in feed): 1.68
Gain/Bird Grams Day 0-3 ([2]; 80 g/ton in feed): 59.9 Grams
F/G Day 4-10 ([2]; 80 g/ton in feed): 2.12
Gain/Bird Grams Day 4-10 ([2]; 80 g/ton in feed): 147.7 Grams
Cecal bleeding associated with E. tenella infections [2]: severe
Incidence of Bloody Droppings ([2]; 120 g/ton in feed): Moderate
Morbidity ([2]; 120 g/ton in feed): 8/15
Mortality ([2]; 120 g/ton in feed): 0/15
F/G Day 0-3 ([2]; 120 g/ton in feed): 1.65
Gain/Bird Grams Day 0-3 ([2]; 120 g/ton in feed): 58.6 Grams
F/G Day 4-10 ([2]; 120 g/ton in feed): 1.83
Gain/Bird Grams Day 4-10 ([2]; 120 g/ton in feed): 169.7 Grams
anticoccidial activity (in words) ([2]; 120 grams per ton): good anticoccidial activity
Average Gain [4]: 214 g
Gain/Feed Ratio [4]: 63.1
Average Weight ([4]; Table 4): 274.8
Gain/Feed ([4]; Table 4): 63.1
Average Gain Index [4]: 104.2
Gain/Feed Ratio Index [4]: 99.0
Gain/Feed Data [5]: .595
Gains/gram Data [5]: 212.4 gram
Gain/Feed Index Relative to #1 [5]: 105.7
Gains Index Relative to #1 [5]: 114.8
Gain/Feed Index Relative to #2 [5]: 99.8
Gains Index Relative to #2 [5]: 101.3

Bacitracin-Zinc-Lysocellin Complex [Example 6]
Average Gain [4]: 219 g
Gain/Feed Ratio [4]: 66.7
Average Weight ([4]; Table 4): 279.4
Gain/Feed ([4]; Table 4): 66.7
Average Gain Index [4]: 106.6
Gain/Feed Ratio Index [4]: 104.7
improvement in feed utilization efficiency vs unmedicated controls ([4]; statistical comparison, Table 4): significant imporvement
Gain/Feed Data [5]: .609
Gains/gram Data [5]: 213.8 gram
Gain/Feed Index Relative to #1 [5]: 108.2
Gains Index Relative to #1 [5]: 115.5
Gain/Feed Index Relative to #2 [5]: 102.2
Gains Index Relative to #2 [5]: 102.0
A/P Ratio ([3]; Example 16, 10 ppm): 1.14

sodium lysocellin [reference compound]
A/P Ratio ([3]; Example 15, 5 ppm, 24 hours at 38° C.): 1.07
A/P Ratio ([3]; Example 16, 5 ppm): 1.07
